Data as given in patent US20040087642A1, “Methods of using and compositions comprising a JNK inhibitor for the treatment, prevention, management and/or modification of pain” (priority 2002, published 2004).

Assays:
[1] = test system: rat ventral mesencephalan dopaminergic neurons; assay: [3H]Dopamine Cell Culture Assay (6-OHDA neurotoxicity); format: cell-based; details: 6-OHDA 30 μM, uptake 22 hrs after exposure
Experimental: Cultures of dopaminergic neurons were prepared according to a modification of the procedure described by Raymon and Leslie (J. Neurochem. 62:1015-1024, 1994). Time-mated pregnant rats were sacrificed on embyronic day 14-15 (crown rump length 11-12 mm) and the embryos removed by cesarean section. The ventral mesencephalon, containing the dopaminergic neurons, was dissected from each embryo. Tissue pieces from approximately 48 embryos were pooled and dissociated both enzymatically and mechanically. An aliquot from the resulting cell suspension was counted and the cells were plated in high glucose DMEM/F12 culture medium with 10% fetal bovine serum at a density of 1×10^5 cells/well of a Biocoat poly-D-lysine-coated 96-well plate. The day following plating was considered 1 day in vitro (DUV). Cells were maintained in a stable environment at 37° C., 95% humidity, and 5% CO2. A partial medium change was performed at 3 DIV. […]
[^3H]Dopamine uptake is used as a measure of the health and integrity of dopaminergic neurons in culture (Prochiantz et al., PNAS 76: 5387-5391, 1979). […] Briefly, cells treated with 6-OHDA in the presence and absence of 5-amino-anthra(9,1-cd)isothiazol-6-one were assessed in the uptake assay 22 hrs after exposure to 6-OHDA. […] Radioactivity was removed and the cultures were washed 3× with ice cold PBS. […]

[2] = Brain-Blood Plasma Distribution In Vivo; parameters: species or system Sprague-Dawley rats; details: rat
Experimental: 5-Amino-anthra(9,1-cd)isothiazol-6-one was administered intravenously (10 mg/kg) into the veins of Sprague-Dawley rats. After 2 hr, blood samples were obtained from the animals and their vascular systems were perfused with approximately 100 mL of saline to rid their brains of blood. The brains were removed from the animals, weighed, and homogenized in a 50 mL conical tube containing 10 equivalents (w/v) of methanol/saline (1:1) using a Tissue Tearer (Fischer Scientific). The homogenized material was extracted by adding 600 μL of cold methanol to 250 μL of brain homogenate vortexed for 30 sec and subjected to centrifugation for 5 min. After centrifugation, 600 μL of the resulting supernatant was transferred to a clean tube and evaporated at room temperature under reduced pressure to provide a pellet. […] The brain homogenate analysis samples, plasma analysis samples, and standard analysis samples were analyzed and compared using HPLC by injecting 100 μL of a sample onto a 5 μm C-18 Luna column (4.6 mm×150 mm, commercially available from Phenomenex of Torrance, Calif.) and eluting at 1 mL/min with a linear gradient of 30% aqueous acetonitrile containing 0.1% trifluoroacetic acid to 90% aqueous acetonitrile containing 0.1% trifluoroacetic acid over 8 minutes and holding at 90% aqueous acetonitrile containing 0.1% trifluoroacetic acid for 3 min. with absorbance detection at 450 nm. […]

[3] = Solubility in aqueous media; format: physicochemical

brain-drug concentration ([2]; 10 mg/kg intravenously, 2 hr post-dose): approximately 65 nmole/g | solubility in aqueous media [3]: limited solubility
Compound: Nc1ccc2snc3c2c1C(=O)c1ccccc1-3 [5-amino-anthra(9,1-cd)isothiazol-6-one]
protection of dopaminergic neurons ([3H]dopamine uptake) [1]: protects rat ventral mesencephalan neurons from the toxic effects of 6-OHDA | blood-brain barrier crossing ([2]; following intravenous administration): crosses the blood-brain barrier to a significant extent
